Reference: patent publication US10597388B2, “Pyridazinone herbicides” (FMC CORPORATION, priority 2014, dated 2020)

Tests used:
Test in all cases: Test D controlled growth environment herbicide test, pre- and postemergence
Format in all cases: in vivo
[1] = tested on: barley, spring (spring barley, Hordeum vulgare)
In short: (§1)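 Species sown in silt loam and sprayed preemergence, or grown in peat-based medium to 2–18 cm (1- to 4-leaf stage) and sprayed postemergence, with compounds in non-phytotoxic solvent plus surfactant. Visual injury scored versus controls after 14–21 d in a controlled environment, 0 (no effect) to 100 (complete control).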

[2] = tested on: blackgrass (Alopecurus myosuroides)
In short: as §1

[3] = tested on: bluegrass (annual bluegrass, Poa annua)
In short: as §1

[4] = tested on: buckwheat, wild (wild buckwheat, Polygonum convolvulus)
In short: as §1

[5] = tested on: canarygrass (Phalaris minor)
In short: as §1

[6] = tested on: chamomile (scentless chamomile, Matricaria inodora)
In short: as §1

[7] = tested on: field violet (Viola arvensis)
In short: as §1

[8] = tested on: foxtail, green (green foxtail, Setaria viridis)
In short: as §1

[9] = tested on: oat, wild (wild oat, Avena fatua)
In short: as §1

[10] = tested on: pigweed (Amaranthus retroflexus)
In short: as §1

[11] = tested on: radish, wild (wild radish, Raphanus raphanistrum)
In short: as §1

[12] = tested on: ryegrass, Italian (Italian ryegrass, Lolium multiflorum)
In short: as §1

[13] = tested on: wheat, spring (spring wheat, Triticum aestivum)
In short: as §1

[14] = Postemergence, 31 g ai/ha, scale 0 to 100 (0 no effect, 100 complete control)
[15] = Postemergence, 125 g ai/ha, visual rating on scale 0 (no effect) to 100 (complete control), 14 to 21 d
[16] = Postemergence, 250 g ai/ha, scale 0 to 100 (0 no effect, 100 complete control)
[17] = Preemergence, 62 g ai/ha, scale 0 to 100 (0 no effect, 100 complete control)
[18] = Preemergence, 125 g ai/ha, scale 0 to 100 (0 no effect, 100 complete control)
[19] = Preemergence, 250 g ai/ha, scale 0 to 100 (0 no effect, 100 complete control)
[20] = postemergence, 62 g ai/ha, scale 0 to 100, 0 no effect, 100 complete control

CCC(=O)Oc1c(C)nn(C)c(=O)c1-c1c(C)sc2ccc(C)cc12 [Compound 42]
45: Plant response rating, Bluegrass [3, 17]
70: Plant response rating, Chamomile [6, 20] | Field Violet plant response rating [7, 14]
60: Plant response rating, Buckwheat, Wild [4, 19] | Plant response rating, Radish, Wild [11, 19]
10: Plant response rating, Barley, Spring [1, 16] | Plant response rating, Radish, Wild [11, 20] | Plant response rating, Wheat, Spring [13, 20]
90: Plant response rating (scale of 0 to 100), Canarygrass ([5]; Preemergence, 31 g ai/ha) | Plant response rating, Field Violet [7, 15] | Plant response rating, Field Violet [7, 16] | Plant response rating (scale of 0 to 100), Oat, Wild ([9]; Preemergence, 31 g ai/ha) | Plant response rating, Oat, Wild [9, 17] | Plant response rating, Pigweed [10, 15] | Plant response rating (scale of 0 to 100), Pigweed ([10]; Preemergence, 31 g ai/ha) | Plant response rating, Pigweed [10, 20]
85: Plant response rating, Blackgrass [2, 16] | Plant response rating (scale of 0 to 100), Field Violet ([7]; Preemergence, 31 g ai/ha) | Plant response rating, Oat, Wild [9, 15] | Plant response rating, Oat, Wild [9, 20] | Pigweed plant response rating [10, 14] | Plant response rating, Ryegrass, Italian [12, 15] | Plant response rating, Ryegrass, Italian [12, 16]
65: Plant response rating, Bluegrass [3, 18] | Plant response rating, Foxtail, Green [8, 15] | Plant response rating, Foxtail, Green [8, 17] | Plant response rating, Radish, Wild [11, 16]
30: Plant response rating (scale of 0 to 100), Foxtail, Green ([8]; Preemergence, 31 g ai/ha)
35: Plant response rating, Bluegrass [3, 16] | Plant response rating (scale of 0 to 100), Bluegrass ([3]; Preemergence, 31 g ai/ha) | Foxtail, Green plant response rating [8, 14]
15: Bluegrass plant response rating [3, 14] | Plant response rating, Radish, Wild [11, 18] | Plant response rating, Wheat, Spring [13, 15]
25: Plant response rating, Buckwheat, Wild [4, 17]
75: Blackgrass plant response rating [2, 14] | Plant response rating, Blackgrass [2, 20] | Plant response rating, Canarygrass [5, 20] | Chamomile plant response rating [6, 14] | Oat, Wild plant response rating [9, 14] | Ryegrass, Italian plant response rating [12, 14]
50: Canarygrass plant response rating [5, 14] | Plant response rating, Foxtail, Green [8, 20]
0: Plant response rating, Barley, Spring [1, 14] | Plant response rating (scale of 0 to 100), Barley, Spring ([1]; Preemergence, 31 g ai/ha) | Plant response rating, Barley, Spring [1, 17] | Plant response rating, Barley, Spring [1, 18] | Plant response rating, Barley, Spring [1, 20] | Plant response rating (scale of 0 to 100), Radish, Wild ([11]; Preemergence, 31 g ai/ha) | Wheat, Spring plant response rating [13, 14] | Plant response rating (scale of 0 to 100), Wheat, Spring ([13]; Preemergence, 31 g ai/ha) | Plant response rating, Wheat, Spring [13, 17] | Plant response rating, Wheat, Spring [13, 18]
95: Plant response rating, Blackgrass [2, 18] | Plant response rating, Buckwheat, Wild [4, 20] | Plant response rating, Canarygrass [5, 17] | Plant response rating (scale of 0 to 100), Chamomile ([6]; Preemergence, 31 g ai/ha) | Plant response rating, Field Violet [7, 17] | Plant response rating, Oat, Wild [9, 16] | Plant response rating, Oat, Wild [9, 18] | Plant response rating, Oat, Wild [9, 19] | Plant response rating (scale of 0 to 100), Ryegrass, Italian ([12]; Preemergence, 31 g ai/ha)
100: Blackgrass plant response rating [2, 19] | Plant response rating, Buckwheat, Wild [4, 15] | Plant response rating, Buckwheat, Wild [4, 16] | Plant response rating, Canarygrass [5, 18] | Plant response rating, Canarygrass [5, 19] | Plant response rating, Chamomile [6, 15] | Plant response rating, Chamomile [6, 16] | Plant response rating, Chamomile [6, 17] | Plant response rating, Chamomile [6, 18] | Plant response rating, Chamomile [6, 19] | Plant response rating, Field Violet [7, 18] | Plant response rating, Field Violet [7, 19] | Plant response rating, Foxtail, Green [8, 18] | Plant response rating, Foxtail, Green [8, 19] | Plant response rating, Pigweed [10, 16] | Plant response rating, Pigweed [10, 17] | Plant response rating, Pigweed [10, 18] | Plant response rating, Pigweed [10, 19] | Plant response rating, Ryegrass, Italian [12, 17] | Plant response rating, Ryegrass, Italian [12, 18] | Plant response rating, Ryegrass, Italian [12, 19]
5: Plant response rating, Barley, Spring [1, 15] | Barley, Spring plant response rating [1, 19] | Radish, Wild plant response rating [11, 14]
80: Plant response rating, Blackgrass [2, 15] | Plant response rating (scale of 0 to 100), Blackgrass ([2]; Preemergence, 31 g ai/ha) | Plant response rating, Blackgrass [2, 17] | Bluegrass plant response rating [3, 19] | Buckwheat, Wild plant response rating [4, 14] | Plant response rating, Buckwheat, Wild [4, 18] | Plant response rating, Canarygrass [5, 15] | Plant response rating, Canarygrass [5, 16] | Plant response rating, Field Violet [7, 20] | Plant response rating, Foxtail, Green [8, 16] | Plant response rating, Ryegrass, Italian [12, 20]
20: Plant response rating, Bluegrass [3, 15] | Plant response rating, Bluegrass [3, 20] | Plant response rating (scale of 0 to 100), Buckwheat, Wild ([4]; Preemergence, 31 g ai/ha) | Plant response rating, Radish, Wild [11, 15] | Plant response rating, Wheat, Spring [13, 16] | Plant response rating, Wheat, Spring [13, 19]
